Test results reported in patent publication US20230081679A1, “SURFACTANT VESICLES FOR VACCINE FORMULATION, TARGETED DRUG DELIVERY, AND TRANSFECTION” (University of Maryland, College Park, priority 2021, published 2023).
Values after ≈ are worked out from the molar mass of the structure shown. Values joined by “and” are separate entries in the source; they are usually repeats but may differ in a detail not shown here. Equal values may be shown once. Read-outs that look alike come from different tables or passages of the source. {BHQ2} = Black Hole Quencher 2; {FAM} = fluorescein

Experiments:
[1] = Encapsulation in catanionic SVs (gel filtration, then NMR or ICP-AES); type: physicochemical
Protocol: Vesicles were formed in the presence of several different sugars, purified by gel filtration, and the encapsulated sugar concentration measured by NMR (Table 3).
Table 6 summarizes the EE and drug concentration achieved with each of the chemotherapeutic agents under the standard SDBS-rich SVs formulation method.
The gel was flushed with two column-volumes of PBS 1×. Next, 1.0 mL of crude vesicle suspension was loaded onto the column and gravity fed into the gel. 2.0 mL of PBS 1× eluent was then added to the column and the fractions discarded. 1.5 mL of PBS 1× was then added to the column and the fractions collected to yield purified opaque light blue vesicles. The column was cleaned with 2.0 mL of 0.1% Triton X-100 in water followed by two column volumes of PBS 1×.

[2] = for Second Order Rate Constant k’: 60:40 w/w SDBS:CTAT, 1% w/w total surfactant
Protocol: To assess the rate of encapsulated substrate release, dialysis was initially considered. […] The assay was to remove aliquots from SVs-encapsulated formulations at time intervals and re-purify the aliquot by size-exclusion chromatography (SEC). Vesicle fractions elute in the initial fractions while release carbohydrate is retained on the column and elutes in the later fractions. The quantity of carbohydrate released was determined by ^1H-NMR (FIG. 28).
Using the SEC method, the initial rate of glucose release was analyzed for vesicle encapsulated glucose solutions at varying concentrations. […] Therefore, a simple model with first-order release kinetics across the vesicle membrane (Eq. 1) was used, from which the rate law (Eq. 2) can be derived, where [Sugar]in and [Sugar]out are the sugar concentrations inside and outside the vesicle, respectively.
The release for each vesicle-encapsulated sugar preparation was monitored for at least two half-lives (monosaccharides) and at least one half-life (disaccharides and maltotriose). The release profile for each substrate was then fit to Eq. 3 by a least squares method, and the first order rate constant k1 was calculated. The reported uncertainties represent the standard deviation in the measured k1 of three separate batches of vesicle-encapsulated sugar.
The t1/2 was calculated from each k1, and the permeability coefficient (P) was calculated using k1 and the vesicle size (from DLS experiments) according to: […]

[3] = Vesicle radius and PDI by DLS
Protocol: To measure the average size of the vesicles, 100 μL of the solution was taken and diluted to 1 mL with water and analyzed using dynamic light scattering (DLS).

A549 = assay: Empty vesicles vs. DOX-vesicles on cell lines; type: cell-based; conditions: Homo sapiens; A549 non-small cell lung cancer
Text: (§1) Empty vesicles vs. DOX-vesicles. 3 cell lines: MDA-MB-231: human breast cancer; MCF-7: human breast cancer; A549: non-small cell lung cancer.

MDA-MB-231 = assay: Empty vesicles vs. DOX-vesicles on cell lines; type: cell-based; conditions: MDA-MB-231 human breast cancer
Text: as §1

[4] = cited from earlier work
[5] = Encapsulation in catanionic SVs (gel filtration, then NMR or ICP-AES); type: physicochemical; conditions: empty SVs incubated in 4 mM D-maltose solution for three weeks
[6] = Conversion of carboplatin in PBS 1×; type: physicochemical; conditions: 40 mM in PBS 1×, 48 h, room temperature
[7] = saline at 37° C.; cited from earlier work
[8] = Drug pKa and solubility in buffer; type: physicochemical
DNase I = DNase I Protection Assay; conditions: 25° C. or 37° C., intact vesicles
Protocol: FIG. 10. […] Vesicle-incorporated fluorescently-quenched 20 bp DNA duplexes were subjected to DNase I cleavage at 25° C. (A) or 37° C. (B) before (intact) and after (broken) freeze/thaw cycles to promote vesicle rupturing. […] Variation in overall fluorescent intensity in the ruptured samples reflect the variability in vesicle rupture and reformation during the freeze/thaw process.
DNase I Protection Assay: Intact DNA duplex loaded vesicles were added to reaction buffer containing 2.5 mM magnesium chloride, 0.5 mM calcium chloride, and 1× PBS. DNase I (Thermo Fisher Scientific, Waltham, Mass.) was added to a final concentration of 0.005 U/μL and the reaction was monitored by fluorescence (excitation at 494 nm, emission 521 nm) collected on SpectraMax M5 Microplate Reader (Molecular Devices, San Jose, Calif.) over 3 h at 25° C. or 37° C. Broken vesicles were prepared by 3 freeze thaw cycles of 10 min at −80° C. and 2 min at RT. Following the freeze thaw procedure, the samples equilibrated at RT for 30 min and were used in the assay as described above.

[9] = 100 mM glucosamine instead of 500 mM, PBS 1×
[10] = sugar vesicles, 100 mM glucosamine, PBS 1×, after 24 h
[11] = prepared in 500 mM sugar, PBS 1×
[12] = sugar vesicles, 500 mM sugar, PBS 1×, after 24 h
[13] = chemotherapeutic drugs in SDBS-rich SVs, PBS 1×
[14] = drug release from catanionic SVs, PBS 1×
[15] = 25° C., PBS 1× pH 7.4, 60:40 w/w SDBS rich vesicles, 500 mM sugar
[16] = 250 mM cellobiose instead of 500 mM, PBS 1×
[17] = sugar vesicles, 250 mM cellobiose, PBS 1×, after 24 h
[18] = 500 mM sugar, deionized water instead of PBS 1×
[19] = sugar vesicles, deionized water instead of PBS 1×, after 24 h

## N[C@H]1C(O)O[C@H](CO)[C@@H](O)[C@@H]1O (stereo partly drawn) [D-glucosamine]
[1]; [9]
  EE (%): 3.5%
  [Sugar], mM (in purified vesicles): 2.3 ± 0.2 mM
[2]; 25° C., PBS 1× pH 7.4, 100 mM sugar concentration
  First Order Rate Constant k: 0.11 ± 0.01 h⁻¹
[3]; [10]
  Vesicle PDI: 0.23
  Vesicle Radius (nm): 78 nm

## OC[C@H]1O[C@@](CO)(O[C@H]2O[C@H](CO)[C@@H](O)[C@H](O)[C@H]2O)[C@@H](O)[C@@H]1O [D-sucrose]
[1]; [11]
  EE (%): 0.86%
  [Sugar], mM (in purified vesicles): 3.2 ± 0.4 mM
[2]; 25° C., PBS 1×
  Second Order Rate Constant k’: 0.00186 ± 0.00011 M⁻¹ s⁻¹
[2]; second order release from SVs
  fold faster leakage than maltose: 5.6 fold
[3]; [12]
  Vesicle PDI: 0.12
  Vesicle Radius (nm): 82 nm

## Nc1nc2[nH]cc(CCc3ccc(C(=O)N[C@@H](CCC(=O)O)C(=O)O)cc3)c2c(=O)[nH]1 [Pemetrexed, pemetrexed]
[1]; [13]
  EE (%): 0.80%
  [Drug], mM (in purified vesicles): 0.45 ± 0.09 mM
[2]
  Half-life t1/2: 47 ± 4 h
[2]; [14]
  First Order Rate Constant k: 0.015 ± 0.001 h⁻¹
[3]; drug-loaded catanionic SVs
  Vesicle PDI: 0.17
  Vesicle Radius (nm): 73 nm

## COc1cccc2c1C(=O)c1c(O)c3c(c(O)c1C2=O)C[C@@](O)(C(=O)CO)C[C@@H]3O[C@H]1C[C@H](N)[C@H](O)[C@H](C)O1 [Doxorubicin, doxorubicin]
[1]; [13]
  EE (%): 61%
  [Drug], mM (in purified vesicles): 0.15 ± 0.02 mM
[1]; chemotherapeutic drugs in SDBS-rich SVs, PBS 1×, listed as doxorubicin
  EE (%): 60% and 61%
A549
  IC50: 0.02 µg/mL (≈ 0.0368 µM)
MDA-MB-231
  IC50: 0.06 µg/mL (≈ 0.11 µM)
[2]; within detection limits, after 11 days
  release from vesicles after 11 days: no release
[4]
  pKa: 8.4
[3]; drug-loaded catanionic SVs
  Vesicle PDI: 0.25
  Vesicle Radius (nm): 91 nm

## OC[C@H]1O[C@H](O[C@H]2[C@H](O)[C@@H](O)[C@H](O)O[C@@H]2CO)[C@H](O)[C@@H](O)[C@@H]1O [D-maltose]
[1]; [11]
  EE (%): 1.2%
  [Sugar], mM (in purified vesicles): 4.1 ± 0.3 mM
[2]; 25° C., PBS 1×
  Second Order Rate Constant k’: 0.000333 ± 8.3e-05 M⁻¹ s⁻¹
[2]; 25° C., PBS 1×, listed as Maltose
  Second Order Rate Constant k’: 0.000333 ± 8.3e-05 M⁻¹ s⁻¹
[3]; [12]
  Vesicle PDI: 0.13
  Vesicle Radius (nm): 80 nm
[5]
  EE: 5%
  maltose trapped by vesicles: 0.2 mM

## O=C[C@@H](O)[C@@H](O)[C@H](O)[C@H](O)CO [D-mannose]
[1]; [11]
  EE (%): 0.87%
  [Sugar], mM (in purified vesicles): 2.9 ± 0.2 mM
[2]; [15]
  First Order Rate Constant k: 0.26 ± 0.06 h⁻¹
[3]; [12]
  Vesicle PDI: 0.18
  Vesicle Radius (nm): 74 nm

## OC[C@H]1O[C@@H](O[C@H]2[C@H](O)[C@@H](O)[C@H](O)O[C@@H]2CO)[C@H](O)[C@@H](O)[C@@H]1O [D-cellobiose]
[1]; [16]
  EE (%): 1.2%
  [Sugar], mM (in purified vesicles): 2.0 ± 0.4 mM
[2]; 25° C., PBS 1×
  Second Order Rate Constant k’: 0.000722 ± 0.00014 M⁻¹ s⁻¹
[3]; [17]
  Vesicle PDI: 0.15
  Vesicle Radius (nm): 90 nm

## O=C[C@H](O)[C@H](O)[C@H](O)CO [D-ribose]
[1]; [11]
  EE (%): 0.084%
  [Sugar], mM (in purified vesicles): 0.28 ± 0.02 mM
[3]; [12]
  Vesicle PDI: 0.20
  Vesicle Radius (nm): 72 nm

## N.N.O=C([O-])C1(C(=O)[O-])CCC1.[Pt+2] [Carboplatin, carboplatin]
[1]; [13]
  EE (%): 1.9%
  [Drug], mM (in purified vesicles): 0.5 ± 0.1 mM
[6]
  converted to cisplatin: 2%
  remained unreacted: 93%
[2]; at the 48 h mark
  leaked out of the vesicles: over 50%
[2]; [14]
  First Order Rate Constant k: 0.039 ± 0.004 h⁻¹
[2]; release from SVs
  fold slower release than cisplatin: 20 fold
  fold slower release than glucose: 3 fold
[7]
  kobs of ligand exchange: 7.7e-07 s⁻¹
  t1/2 of ligand exchange: ≈ 10 days
[3]; drug-loaded catanionic SVs
  Vesicle PDI: 0.19
  Vesicle Radius (nm): 74 nm
[8]
  solubility (concentration in buffer): 40 mM

## N.N.[Cl][Pt][Cl] [Cisplatin, cisplatin]
[1]; [13]
  EE (%): 2.1%
  [Drug], mM (in purified vesicles): 0.05 ± 0.01 mM
[2]; [14]
  First Order Rate Constant k: 0.78 ± 0.06 h⁻¹
[3]; drug-loaded catanionic SVs
  Vesicle PDI: 0.16
  Vesicle Radius (nm): 76 nm

## O=S(=O)(O)N[C@H]1C(O)O[C@H](CO)[C@@H](O)[C@@H]1O (stereo partly drawn) [D-glucosamine-2-sulfate]
[1]; [11]
  EE (%): 1.0%
  [Sugar], mM (in purified vesicles): 3.3 ± 0.7 mM
[2]; [15]
  First Order Rate Constant k: 0.29 ± 0.06 h⁻¹
[3]; [12]
  Vesicle PDI: 0.06
  Vesicle Radius (nm): 69 nm

## maltotriose
[1]; [11]
  EE (%): 0.65%
  [Sugar], mM (in purified vesicles): 2.2 ± 0.2 mM
[2]; 25° C., PBS 1×
  Second Order Rate Constant k’: 0.00211 ± 0.00022 M⁻¹ s⁻¹
[3]; [12]
  Vesicle PDI: 0.13
  Vesicle Radius (nm): 95 nm

## COC1OC(CO)C(O)C(O)C1O [α-D-methylglucoside]
[1]; [11]
  EE (%): 0.17%
  [Sugar], mM (in purified vesicles): 0.6 ± 0.2 mM
[2]; [15]
  First Order Rate Constant k: 3.7 ± 0.5 h⁻¹
[3]; [12]
  Vesicle PDI: 0.19
  Vesicle Radius (nm): 75 nm

## O=C[C@H](O)[C@@H](O)[C@H](O)[C@H](O)CO [D-glucose]
[1]; [18]
  EE (%): 0.67%
  [Sugar], mM (in purified vesicles): 2 ± 1 mM
[1]; [11]
  EE (%): 1.1%
  [Sugar], mM (in purified vesicles): 3.7 ± 0.8 mM
[1]; vesicles prepared in 0.1 M glucose
  EE: 1.9%
[2]; [15]
  First Order Rate Constant k: 0.12 ± 0.03 h⁻¹
[2]; 25° C., in water instead of PBS 1×, 500 mM sugar
  First Order Rate Constant k: 0.12 ± 0.05 h⁻¹
[2]; vesicles prepared in 0.1, 0.2 and 0.5 M glucose
  slope of ln starting concentration vs ln initial release rate: 1.1±0.2
[3]; [12]
  Vesicle PDI: 0.17
  Vesicle Radius (nm): 75 nm
[3]; [19]
  Vesicle PDI: 0.40
  Vesicle Radius (nm): 178 nm

## 20 bp DNA duplexes: fluorescently-quenched 20 bp DNA duplexes (SEQ ID NO:3 and 4), vesicle-incorporated (chain 1 ACCCTACGTATCGGTCAGTC; chain 2 GACTGACCGATACGTAGGGT; chain 1: DNA, 3' {FAM}, backbone and methylation of C not given here; chain 2: DNA, 5' {BHQ2}, backbone and methylation of C not given here)
DNase I
  protection from DNase I cleavage, vesicle-incorporated: protected from nuclease digestion

## O=C[C@H](O)[C@@H](O)[C@@H](O)[C@H](O)CO [D-galactose]
[1]; [11]
  EE (%): 0.82%
  [Sugar], mM (in purified vesicles): 2.7 ± 0.7 mM
[2]; [15]
  First Order Rate Constant k: 0.16 ± 0.02 h⁻¹
[3]; [12]
  Vesicle PDI: 0.20
  Vesicle Radius (nm): 83 nm
